According to publication PMC5606850, “Acidic C-terminal domains autoregulate the RNA chaperone Hfq” (eLife, 2017):
Entries after “also recorded” stand apart in the source; their conditions may differ.

Legend:
[1] = system: RNA molecular beacon and Target RNA; assay: RNA annealing kinetics (molecular beacon and Target RNAs), stopped-flow fluorescence; format: biochemical; conditions: 30 °C
Description: Figure 2. CTD and RNA occupy the same rim binding site. […] The CTD linker is shown in purple, the acidic tip in red and the N-terminal FITC as a yellow star. Hfq core is shown in cyan, with basic rim patches in dark blue. […] (C) Reaction scheme for annealing an RNA molecular beacon to a target RNA (open bar) ([Hopkins et al., 2011]; [Panja et al., 2015]). (D) Progress curves for annealing 50 nM molecular beacon and 100 nM Target by 50 nM Hfq65 hexamer at 30°C, measured by stopped-flow fluorescence. See Figure 2—figure supplement 3 for further data. (E) Contribution of core residues to CTD binding. Interaction energy (Expected Energetic Contribution; EEC) in silico for a core residue in the Rosetta models (solid symbols and solid line; adjusted R^2 = 0.77) or the average annealing rates for Target and Target-A18 relative to Hfq65 (open symbols and dashed line; adjusted R^2 = 0.94) versus experimental CTD binding energy (∆∆G°) for each Hfq65 variant. The binding energy, ∆∆G° = –RTln(Kd^MUT/Kd), reflects the perturbation to CTD binding by a mutation in Hfq65. The interaction energy in silico or EEC is defined as the average energy of a tail–core interaction multiplied by the average number of tail–core interactions per model (Figure 1B, top and Equation 3). The relative annealing rate for Hfq65 variants, krel = kobs^MUT/kobs^WT, is <1 if the mutated residue is important for RNA annealing. Figure 2—figure supplement 1. SDS-PAGE of purified Hfq variants. […] Annealing of 100 nM Target RNA to 50 nM beacon RNA by Hfq65 and Hfq65 variants was measured by stopped flow fluorescence at 30°C in 1 × TNK buffer. […] The change in fluorescence emission intensity was normalized to the maximum fluorescence within an experiment. […]
To determine how much core residues that bind the CTD contribute to Hfq’s RNA annealing activity, we compared the effect of rim mutations on the rate of base pairing between an RNA molecular beacon and the 16 nt Target RNA by stopped-flow fluorescence spectroscopy (Figure 2C) ([Hopkins et al., 2011]). […]

1000 bp DNA / pUC19 DNA = assay: Hfq·DNA aggregation: pelleting and protease assays; format: biochemical; conditions: 3.5 µM Hfq hexamer, 15 nM 1000 bp DNA (pelleting) or 6 nM pUC19 (protease assay), 25 °C
Description: Figure 5. CTD and RNAs inhibit DNA binding to Hfq by obstructing the basic rim patch. (A, B) Agarose gel electrophoretic mobility shift assays of 0–3.3 μM hexamer Hfq102, Hfq102-R16A, Hfq65 or Hfq65-R16A binding to 6 nM linear pUC19 DNA ([…]) at 25°C, stained with SYBR Gold. Hfq65 forms large aggregates that fail to enter the gel (Figure 5—figure supplement 1). (C, D) Line densitometry of DNA migration in (A, B). Free pUC19 (no Hfq) is shown in light grey. Samples with increasing Hfq concentration are shown in darker shades of grey. (E, F) RNA competition. Complexes of 0.5 μM Hfq102 hexamer and 6 nM linear pUC19 (black) were challenged by 0–2 μM RNA or DNA competitor (darker shades of red). pUC19 control in the absence of Hfq is shown in light grey. Icons indicate the binding surface for each competitor. See Figure 5—figure supplement 2 for gel images. Figure 5—figure supplement 1. Hfq CTD prevents aggregation with DNA. (A) Protease assay. 3.5 µM Hfq hexamer incubated with 6 nM linear (L) plus relaxed circular (N) pUC19 DNA at 25°C, for 30 min, in 50 mM Tris-HCl pH 7.5 and 10 mM CaCl2. The samples were divided in two. […] Digestion of Hfq65 and Hfq65-R16A with Proteinase K liberates DNA from Hfq•DNA aggregates, allowing it to be detected (lanes 9 and 10). […] The small proportion of Hfq65·DNA complexes remaining in the supernatant were only detected in the gel after treatment with salt. […]

Substance | observed annealing rate of Hfq65 rim mutants ([1]; 50 nM molecular beacon, 100 nM Target, Hfq65 variants, TNK buffer) | Hfq·DNA aggregation (1000 bp DNA / pUC19 DNA) | activity in single-turnover annealing assays ([1]; 50 nM beacon, 100 nM Target RNA, 0–200 nM Hfq hexamer)
Hfq65-R16A | most diminished | more evenly distributed between pellet and supernatant fractions; also recorded: form insoluble aggregates with DNA which do not enter the gel | 
Hfq65: truncated E. coli Hfq variant lacking the CTD |  | Nearly all of the Hfq65·DNA complexes were found in the pellet fraction; also recorded: form insoluble aggregates with DNA which do not enter the gel | highly active
